Source: BindingDB's records for doi:10.1016/j.bmcl.2007.03.076 (Tanabe Research Laboratories Usa, 2007)

Biological target: T1, Oxysterols receptor LXR-beta (Homo sapiens, UniProt P55055)
T1 sequence (P55055 whole entry): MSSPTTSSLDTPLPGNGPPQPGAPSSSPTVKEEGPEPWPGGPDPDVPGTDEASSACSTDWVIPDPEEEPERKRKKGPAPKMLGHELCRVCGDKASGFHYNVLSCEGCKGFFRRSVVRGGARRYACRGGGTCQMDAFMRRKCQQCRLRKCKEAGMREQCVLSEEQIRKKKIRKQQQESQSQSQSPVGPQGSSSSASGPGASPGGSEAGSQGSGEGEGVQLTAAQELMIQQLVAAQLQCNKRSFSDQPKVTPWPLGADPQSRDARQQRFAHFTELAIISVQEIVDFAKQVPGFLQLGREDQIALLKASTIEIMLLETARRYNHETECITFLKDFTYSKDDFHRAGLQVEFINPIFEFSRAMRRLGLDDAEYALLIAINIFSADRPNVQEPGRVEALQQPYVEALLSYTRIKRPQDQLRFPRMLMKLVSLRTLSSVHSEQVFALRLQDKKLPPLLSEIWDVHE
Assay: HTRF Cofactor Peptide Recruitment Assay
Details: pH 7.5; 22 °C
Description: Polyhistidine-tagged human LXR ligand-binding domain was mixed with the test compound, biotin-SRC1 peptide, streptavidin-allophycocyanin, and europium labeled anti-polyhistidine antibody in reaction buffer, and the mixture was incubated in a 384-well assay plate format. Time-resolved fluorescence was measured at 615 and 665 nm on a LJL Analyst plate reader. The ratio of 665/615 was used to calculate EC50 values of test compounds.

EC50: 210 nM
Compound: CC(C)(C)OC(=O)n1c(-c2ccc3c(c2)CC(NS(=O)(=O)c2ccccc2)C3)cc2ccccc21 (stereo unspecified) [tert-butyl 2-(2-benzenesulfonamido-2,3-dihydro-1H-inden-5-yl)-1H-indole-1-carboxylate]
